From publication PMC9516332 (Frontiers in Oncology, 2022)
Read-outs that look alike come from different tables or passages of the source.

Columns and labels:
Experiment in all cases: Kinase panel profiling at 1 µmol/L (MSA or IMAP), percentage inhibition
Assay type in all cases: biochemical
[1] = biological target: panel of 255 wild-type kinases (Homo sapiens, UniProt Q9BUB5); details: MNK1; 1 µmol/L single concentration; read-out: %-inhibition, MNK1
[2] = biological target: T1, panel of 255 wild-type kinases (Homo sapiens, UniProt P54760); details: kinase EPHB4; 1 µmol/L single concentration; read-out: %-inhibition at 1 µmol/L, EPHB4
T1 sequence (P54760 16-987): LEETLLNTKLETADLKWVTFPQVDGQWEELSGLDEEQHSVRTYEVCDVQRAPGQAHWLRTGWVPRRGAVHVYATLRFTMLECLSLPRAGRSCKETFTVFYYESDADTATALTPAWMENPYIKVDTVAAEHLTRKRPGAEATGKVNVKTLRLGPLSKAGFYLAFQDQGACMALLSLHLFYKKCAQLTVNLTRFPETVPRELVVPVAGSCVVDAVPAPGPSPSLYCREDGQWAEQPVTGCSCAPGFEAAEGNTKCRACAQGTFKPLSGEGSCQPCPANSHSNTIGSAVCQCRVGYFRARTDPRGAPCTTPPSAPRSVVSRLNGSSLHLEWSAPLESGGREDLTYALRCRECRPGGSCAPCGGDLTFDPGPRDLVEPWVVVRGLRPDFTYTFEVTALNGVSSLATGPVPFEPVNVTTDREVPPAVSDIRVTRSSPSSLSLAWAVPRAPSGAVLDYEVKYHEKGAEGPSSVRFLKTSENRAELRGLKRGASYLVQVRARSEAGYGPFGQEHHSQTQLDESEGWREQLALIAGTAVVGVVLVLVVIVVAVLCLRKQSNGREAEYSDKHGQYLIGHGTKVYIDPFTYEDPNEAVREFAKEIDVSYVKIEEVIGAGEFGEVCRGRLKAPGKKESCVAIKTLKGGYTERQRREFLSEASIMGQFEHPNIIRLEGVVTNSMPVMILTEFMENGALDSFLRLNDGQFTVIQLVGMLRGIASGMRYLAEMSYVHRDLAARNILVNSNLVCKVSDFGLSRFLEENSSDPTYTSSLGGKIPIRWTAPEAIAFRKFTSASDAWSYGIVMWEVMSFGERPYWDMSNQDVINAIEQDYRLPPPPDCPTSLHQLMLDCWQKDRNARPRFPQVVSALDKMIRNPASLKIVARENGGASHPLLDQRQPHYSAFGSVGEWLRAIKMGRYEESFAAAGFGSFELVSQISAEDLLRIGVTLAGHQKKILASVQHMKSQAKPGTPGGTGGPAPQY

[3] = biological target: panel of 255 wild-type kinases (Homo sapiens, UniProt Q13627); details: kinase DYRK1A; 1 µmol/L single concentration; read-out: %-inhibition at 1 µmol/L, DYRK1A
[4] = biological target: panel of 255 wild-type kinases (Homo sapiens, UniProt Q9UK32); details: kinase RSK4; 1 µmol/L single concentration; read-out: %-inhibition at 1 µmol/L, RSK4
[5] = biological target: panel of 255 wild-type kinases (Homo sapiens, UniProt Q9Y243); details: AKT3 kinase assay; 1 µmol/L single concentration; read-out: %-inhibition AKT3
[6] = biological target: panel of 255 wild-type kinases (Homo sapiens, UniProt Q15303); details: read-out: %-inhibition at 1 µmol/L, HER4
[7] = biological target: panel of 255 wild-type kinases (Homo sapiens, UniProt Q15375); details: kinase EPHA7; 1 µmol/L single concentration; read-out: %-inhibition at 1 µmol/L, EPHA7
[8] = biological target: panel of 255 wild-type kinases (Homo sapiens, UniProt P09769); details: kinase FGR; 1 µmol/L single concentration; read-out: %-inhibition at 1 µmol/L, FGR
[9] = biological target: panel of 255 wild-type kinases (Homo sapiens, UniProt Q9UKE5); details: kinase TNIK; 1 µmol/L single concentration; read-out: %-inhibition at 1 µmol/L, TNIK
[10] = biological target: panel of 255 wild-type kinases (Homo sapiens, UniProt P51617); details: kinase IRAK1; 1 µmol/L single concentration; read-out: %-inhibition at 1 µmol/L, IRAK1
[11] = biological target: panel of 255 wild-type kinases (Homo sapiens, UniProt Q16539); details: p38α; 1 µmol/L single concentration; read-out: %-inhibition, p38α
[12] = biological target: panel of 255 wild-type kinases (Homo sapiens, UniProt Q8N568); details: kinase DCAMKL2; 1 µmol/L single concentration; read-out: %-inhibition at 1 µmol/L, DCAMKL2
[13] = biological target: panel of 255 wild-type kinases (Homo sapiens, UniProt Q9H1R3); details: kinase skMLCK; 1 µmol/L single concentration; read-out: %-inhibition at 1 µmol/L, skMLCK
[14] = biological target: T2, panel of 255 wild-type kinases (Homo sapiens, UniProt Q9UQB9); details: AurC kinase assay; 1 µmol/L single concentration; read-out: %-inhibition AurC
T2 sequence (Q9UQB9 1-309): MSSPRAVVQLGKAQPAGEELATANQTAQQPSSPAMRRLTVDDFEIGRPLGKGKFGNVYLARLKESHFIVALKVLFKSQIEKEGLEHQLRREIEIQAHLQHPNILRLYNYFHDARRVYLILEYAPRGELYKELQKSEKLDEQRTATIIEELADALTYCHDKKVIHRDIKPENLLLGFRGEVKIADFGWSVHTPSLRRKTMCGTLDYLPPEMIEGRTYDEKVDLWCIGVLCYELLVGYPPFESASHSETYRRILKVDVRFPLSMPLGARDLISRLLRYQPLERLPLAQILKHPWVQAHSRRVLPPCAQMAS

| Compound | inhibition at 1 µM [1] [%] | inhibition at 1 µM [2] [%] | inhibition at 1 µM [3] [%] | inhibition at 1 µM [4] [%] | inhibition at 1 µM [5] [%] | inhibition at 1 µM ([6]; kinase HER4, 1 µmol/L single concentration) [%] | inhibition at 1 µM [7] [%] | inhibition at 1 µM [8] [%] | inhibition at 1 µM [9] [%] | inhibition at 1 µM [10] [%] | inhibition at 1 µM [11] [%] | inhibition at 1 µM [12] [%] | inhibition at 1 µM [13] [%] | inhibition at 1 µM [14] [%] | inhibition at 1 µM [6] [%] |
| --- | --- | --- | --- | --- | --- | --- | --- | --- | --- | --- | --- | --- | --- | --- | --- |
| Cc1cc(Nc2ncnc3ccc(NC4=NC(C)(C)CO4)cc23)ccc1Oc1ccn2ncnc2c1 [tucatinib] | -1.41 | -0.489 | -3.25 | 0.229 | -4.58 | 94 | 1.07 | 6 | 4 | 4.63 | 1.53 | 3.59 | -1.5 | -5.26 | – |
| C=CC(=O)N1CCC([C@@H]2CCNc3c(C(N)=O)c(-c4ccc(Oc5ccccc5)cc4)nn32)CC1 [zanubrutinib] | -4.39 | -2.82 | -4.37 | -6 | -3 | – | 0.758 | 37 | 6.44 | -2.53 | -1.11 | 0.323 | -2.7 | -0.855 | 99 |
